Measurements as given in the NIST ThermoML archive (doi:10.1021/acs.jced.7b00674).
Numbers after ± are expanded uncertainties.

Experiments:
[1] = 298.15 K; 101.33 kPa; Liquid; Vibrating tube method
[2] = refractive index (Na D-line) (dimensionless); conditions: 298.15 K; 101.33 kPa; Liquid; Standard Abbe refractometry

Structure (SMILES)	mass density [1] [kg/m3]	refractive index [2]
CC(=O)C=C(C)C [4-methyl-3-penten-2-one]	857.6 ± 16	1.4416 ± 0.012
O [water]		1.3324 ± 0.012
Cc1ccc(C)cc1 [1,4-dimethylbenzene]	856.5 ± 16	1.4931 ± 0.012
OC1CCCCC1 [cyclohexanol]	961.5 ± 16	1.4621 ± 0.012
Cc1ccccc1 [toluene]	862.1 ± 16	1.4938 ± 0.012
